# Results taken from US9980943B2, “Methods of treating muscular dystrophy” (BOARD OF REGENTS OF THE NEVADA SYSTEM OF HIGHER EDUCATION, …, priority 2013, dated 2018).
# How the values were obtained:
# Type in all cases: cell-based, mouse
# [1] = test system: β-galactosidase in CMV-LacZ C2C12 myotubes; assay: CMV-LacZ secondary screen in C2C12 myotubes (β-Gal stabilizing assay); settings: for CMV-LACZ in Myotubes, signal relative to DMSO: C2C12 CMV-LacZ myotubes, fold relative to DMSO; for CMV-LACZ in Myotubes (β-galactosidase activity relative to DMSO): CMV-LacZ C2C12 myotubes, 96-well format
# Procedure, shortened: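 CMV-LacZ C2C12 line (clonal, FDG-screened); myoblasts/myotubes dosed 0.5–40 μM (0.5, 1, 5, 10, 20, 40 μM); n=2 per point; β-gal stabilization read-out.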
# [2] = test system: α7 integrin (LacZ reporter in α7+/LacZ myotubes); assay: Myotube α7 integrin FDG assay (Burkin assay in myotubes, 96-well); settings: myotubes
# [3] = test system: α7 integrin (LacZ reporter in α7βgal+/− myoblasts); assay: Myoblast α7+/LacZ integrin FDG assay (Burkin assay in myoblasts, 96-well); settings: α7+/LacZ myoblasts, 96-well
Compound,"CMV-LACZ in Myotubes, signal relative to DMSO ([1]; 5 uM)","CMV-LACZ in Myotubes, signal relative to DMSO ([1]; 10 uM)","CMV-LACZ in Myotubes, signal relative to DMSO ([1]; 20 uM)","CMV-LACZ in Myotubes, signal relative to DMSO ([1]; 40 uM)",CMV-LACZ in Myotubes (β-galactosidase activity relative to DMSO) ([1]; 5 uM),CMV-LACZ in Myotubes (β-galactosidase activity relative to DMSO) ([1]; 10 uM),CMV-LACZ in Myotubes (β-galactosidase activity relative to DMSO) ([1]; 20 uM),CMV-LACZ in Myotubes (β-galactosidase activity relative to DMSO) ([1]; 40 uM),Burkin Assay in Myotubes (signal relative to DMSO) ([2]; 0.5 uM),Burkin Assay in Myotubes (signal relative to DMSO) ([2]; 1 uM),Burkin Assay in Myotubes (signal relative to DMSO) ([2]; 5 uM),Burkin Assay in Myotubes (signal relative to DMSO) ([2]; 10 uM),Burkin Assay in Myotubes (signal relative to DMSO) ([2]; 20 uM),Burkin Assay in Myotubes (signal relative to DMSO) ([2]; 40 uM),"Burkin Assay in Myoblasts, value relative to DMSO ([3]; 0.5 uM)","Burkin Assay in Myoblasts, value relative to DMSO ([3]; 1 uM)","Burkin Assay in Myoblasts, value relative to DMSO ([3]; 5 uM)","Burkin Assay in Myoblasts, value relative to DMSO ([3]; 10 uM)","Burkin Assay in Myoblasts, value relative to DMSO ([3]; 20 uM)","Burkin Assay in Myoblasts, value relative to DMSO ([3]; 40 uM)",also measured
CCCCN(CCCC)CCNC(=O)c1cn(C)c2ccc(S(=O)(=O)N(C)C3CCCCC3)cc2c1=O [MLS000913117-01],0.8036,0.8262,0.5938,0.6538,,,,,,,,,,,,,,,,,"Burkin Assay in Myotubes, α7 integrin LacZ reporter signal relative to DMSO ([2]; 0.5 uM): 1.09; Burkin Assay in Myotubes, α7 integrin LacZ reporter signal relative to DMSO ([2]; 1 uM): 1.208; Burkin Assay in Myotubes, α7 integrin LacZ reporter signal relative to DMSO ([2]; 5 uM): 0.9655; Burkin Assay in Myotubes, α7 integrin LacZ reporter signal relative to DMSO ([2]; 10 uM): 0.6623; Burkin Assay in Myotubes, α7 integrin LacZ reporter signal relative to DMSO ([2]; 20 uM): 0.495; Burkin Assay in Myotubes, α7 integrin LacZ reporter signal relative to DMSO ([2]; 40 uM): 0.3911; Burkin Assay in Myoblasts, signal relative to DMSO ([3]; 0.5 uM): 0.9085; Burkin Assay in Myoblasts, signal relative to DMSO ([3]; 1 uM): 0.9155; Burkin Assay in Myoblasts, signal relative to DMSO ([3]; 5 uM): 0.9138; Burkin Assay in Myoblasts, signal relative to DMSO ([3]; 10 uM): 0.6729; Burkin Assay in Myoblasts, signal relative to DMSO ([3]; 20 uM): 0.1952; Burkin Assay in Myoblasts, signal relative to DMSO ([3]; 40 uM): 0.05713"
CC(=O)c1cccc(NC(=O)C2CCCN(S(=O)(=O)c3cccc4nonc34)C2)c1 (centres unmarked) [MLS000937079-01],,,,,1.087,0.9923,0.9641,0.9682,1.0515,0.6372,0.9756,0.8882,1.142,0.9197,1.163,0.8958,1.053,1.147,1.028,0.9956,
O=C(COC(=O)Cn1cnc2ccccc21)Nc1cccc([N+](=O)[O-])c1 [MLS001005283-01],0.9005,0.9051,1.032,1.1425,,,,,,,,,,,,,,,,,"Burkin Assay in Myotubes, α7 integrin LacZ reporter signal relative to DMSO ([2]; 0.5 uM): 0.9811; Burkin Assay in Myotubes, α7 integrin LacZ reporter signal relative to DMSO ([2]; 1 uM): 0.9951; Burkin Assay in Myotubes, α7 integrin LacZ reporter signal relative to DMSO ([2]; 5 uM): 0.8583; Burkin Assay in Myotubes, α7 integrin LacZ reporter signal relative to DMSO ([2]; 10 uM): 0.9141; Burkin Assay in Myotubes, α7 integrin LacZ reporter signal relative to DMSO ([2]; 20 uM): 0.9432; Burkin Assay in Myotubes, α7 integrin LacZ reporter signal relative to DMSO ([2]; 40 uM): 0.7596; Burkin Assay in Myoblasts, signal relative to DMSO ([3]; 0.5 uM): 0.8702; Burkin Assay in Myoblasts, signal relative to DMSO ([3]; 1 uM): 0.8582; Burkin Assay in Myoblasts, signal relative to DMSO ([3]; 5 uM): 0.9346; Burkin Assay in Myoblasts, signal relative to DMSO ([3]; 10 uM): 0.8908; Burkin Assay in Myoblasts, signal relative to DMSO ([3]; 20 uM): 0.8965; Burkin Assay in Myoblasts, signal relative to DMSO ([3]; 40 uM): 0.9301"
O=C(NC1CCCC1)c1ccc(CS(=O)(=O)Cc2ccccc2F)o1 [MLS001030746-01],,,,,0.9791,0.8757,1.098,0.9912,1.047,0.9692,1.031,0.9496,0.9886,1.067,0.9195,0.8373,1.069,1.073,0.9338,0.9637,
COc1ccc(CNC(=O)COC(=O)CCc2c[nH]c3ccccc23)cc1 [MLS001033202-01],0.9658,0.9933,0.8214,1.2,,,,,,,,,,,,,,,,,"Burkin Assay in Myotubes, α7 integrin LacZ reporter signal relative to DMSO ([2]; 0.5 uM): 1.057; Burkin Assay in Myotubes, α7 integrin LacZ reporter signal relative to DMSO ([2]; 1 uM): 1.019; Burkin Assay in Myotubes, α7 integrin LacZ reporter signal relative to DMSO ([2]; 5 uM): 1.042; Burkin Assay in Myotubes, α7 integrin LacZ reporter signal relative to DMSO ([2]; 10 uM): 1.0906; Burkin Assay in Myotubes, α7 integrin LacZ reporter signal relative to DMSO ([2]; 20 uM): 1.051; Burkin Assay in Myotubes, α7 integrin LacZ reporter signal relative to DMSO ([2]; 40 uM): 0.986; Burkin Assay in Myoblasts, signal relative to DMSO ([3]; 0.5 uM): 0.6682; Burkin Assay in Myoblasts, signal relative to DMSO ([3]; 1 uM): 0.9153; Burkin Assay in Myoblasts, signal relative to DMSO ([3]; 5 uM): 0.9952; Burkin Assay in Myoblasts, signal relative to DMSO ([3]; 10 uM): 0.9282; Burkin Assay in Myoblasts, signal relative to DMSO ([3]; 20 uM): 0.8408; Burkin Assay in Myoblasts, signal relative to DMSO ([3]; 40 uM): 0.7704"
O=C(Nc1ccc(N2CCN(C(=O)c3ccccc3F)CC2)cc1)c1cncc(Br)c1 [MLS001060533-01],,,,,0.8358,0.7789,0.7716,0.6871,0.9464,1.208,1.318,1.52,1.342,1.117,0.9049,0.9915,1.033,1.101,1.397,1.22,
O=C(Nc1ccc(Cl)cc1N1CCOCC1)C1CCCCC1 [MLS001060549-01],1.322,0.8952,0.8814,1.075,,,,,0.8181,1.071,0.9783,1.111,0.9391,0.9134,1.056,1.204,1.012,1.072,0.7731,0.9411,
O=C(c1ccc(Cl)c(S(=O)(=O)N2CCCCC2)c1)N1CCN(Cc2ccccc2)CC1 [MLS001060561-01],,,,,0.9396,1.002,0.9373,0.6425,0.8047,0.9329,0.9832,0.9977,0.8557,0.9329,0.9961,0.9284,0.8266,0.8878,0.795,0.6318,
